Values quoted from earlier work in patent US11555007B2, “Compositions and methods for the treatment of neurological diseases” (Cellix Bio Private Limited, priority 2018, dated 2023).

Tested on: unipolar or bipolar patients in a major depressive episode
Conditions: intravenous ketamine 0.5 mg/kg versus saline; all 8 treated patients

## CNC1(c2ccccc2Cl)CCCCC1=O (stereo not shown) [ketamine, 2-(2-chlorophenyl)-2-(methylamino)cyclohexan-1-one]
  improvement in depressive symptoms: significant improvement in depressive symptoms
